pKd: −log10 of the molar value.

T1 sequence (A0A2H1A309 entry or part of it): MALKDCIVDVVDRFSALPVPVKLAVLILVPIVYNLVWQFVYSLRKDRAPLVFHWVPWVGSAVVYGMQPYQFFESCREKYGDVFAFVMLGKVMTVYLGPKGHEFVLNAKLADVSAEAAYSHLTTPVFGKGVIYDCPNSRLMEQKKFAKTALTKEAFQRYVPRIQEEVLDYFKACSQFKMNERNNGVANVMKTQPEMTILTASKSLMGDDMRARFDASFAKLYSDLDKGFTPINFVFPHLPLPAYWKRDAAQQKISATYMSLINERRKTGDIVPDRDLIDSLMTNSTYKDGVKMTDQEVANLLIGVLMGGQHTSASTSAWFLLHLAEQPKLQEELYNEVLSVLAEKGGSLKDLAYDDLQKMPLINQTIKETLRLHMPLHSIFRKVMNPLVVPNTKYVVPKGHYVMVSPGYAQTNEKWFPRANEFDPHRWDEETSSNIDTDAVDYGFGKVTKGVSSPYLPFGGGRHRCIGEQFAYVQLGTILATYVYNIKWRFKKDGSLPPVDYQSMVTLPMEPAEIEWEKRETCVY

The assay addresses T1, CauErg11-6×His (Candidozyma auris, UniProt A0A2H1A309).
T1 construct: gene B9J08_03698; full-length, C-terminal GGR linker and 6xHis kept; expressed in S. cerevisiae ADΔΔ (Y2767, native ERG11 deleted); DM-solubilised, Ni-NTA partially purified; mutant Y132F in strain Y2768
The experiment in a line: type II difference spectra titration. Format: binding. The source says: type II difference spectra titration on CauErg11-6×His
For `C[C@@H](c1nc(-c2ccc(C#N)cc2)cs1)[C@](O)(Cn1cncn1)c1cc(F)ccc1F` [ISA, Isavuconazole], the pKd (in general, the negative decadic logarithm of the Kd, by convention in mol/L) is 6.70.
`C[C@@H](c1ncncc1F)[C@](O)(Cn1cncn1)c1ccc(F)cc1F` [VRC, Voriconazole] had a pKd of 6.13.
In turn, `CC[C@@H]([C@H](C)O)n1ncn(-c2ccc(N3CCN(c4ccc(OC[C@@H]5CO[C@@](Cn6cncn6)(c6ccc(F)cc6F)C5)cc4)CC3)cc2)c1=O` [POS, Posaconazole] had a pKd of 6.47.

The values above are taken from article PMC9960696, “Functional Expression of Recombinant Candida auris Proteins in Saccharomyces cerevisiae Enables Azole Susceptibility Evaluation and Drug Discovery” (Journal of Fungi, 2023).
